The values that follow are results of earlier work, collected in patent publication US20240230638A9, “SMALL MOLECULE SCREENING ASSAY FOR DIGITAL MICROFLUIDIC PLATFORM” (NICOYA LIFESCIENCES, INC., priority 2021, published 2024).

The conditions of this series: measure of hydrophobicity, literature values.
As to `NS(=O)(=O)c1ccccc1` [Benzenesulfonamide], the “octanol-water partitioning coefficients (logKow)” value is 0.31. For `CC(C)/N=c1\cc2n(-c3ccc(Cl)cc3)c3ccccc3nc-2cc1Nc1ccc(Cl)cc1` [Clofazimine], the “octanol-water partitioning coefficients (logKow)” value was 6.3.

Consider `O=C(O)c1ccccc1Nc1cccc(C(F)(F)F)c1` [Flufenamic acid], for which the “octanol-water partitioning coefficients (logKow)” value is 5.19. `CC(C)Cc1ccc(C(C)C(=O)O)cc1` (stereo not shown) [Ibuprofen]: the “octanol-water partitioning coefficients (logKow)” value is on record as 3.97.
